Data as given in PubChem BioAssay (NCI).
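Tested at 5 concentrations; 48 h exposure; 96-well plates; endpoints linearly interpolated, else capped at highest concentration. The concentration for 50% growth inhibition is given as GI50. TGI: concentration producing complete growth inhibition.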

Key:
Assay in all cases: NCI tumour cell line growth inhibition, 48 h
HOP-92 NSCLC = system: HOP-92 NSCLC
786-0 renal = system: 786-0 renal
UO-31 renal = system: UO-31 renal
SF-539 CNS = system: SF-539 CNS
U251 CNS = system: U251 CNS
NCI-H23 lung = system: NCI-H23 lung
SNB-19 CNS = system: SNB-19 CNS
A498 renal = system: A498 renal
UACC-62 melanoma = system: UACC-62 melanoma
RXF 393 renal = system: RXF 393 renal

Compound | TGI (HOP-92 NSCLC) [µM] | TGI (786-0 renal) [µM] | TGI (UO-31 renal) [µM] | TGI (SF-539 CNS) [µM] | TGI (U251 CNS) [µM] | TGI (NCI-H23 lung) [µM] | TGI (SNB-19 CNS) [µM] | TGI (A498 renal) [µM] | TGI (UACC-62 melanoma) [µM] | TGI (RXF 393 renal) [µM] | GI50 (HOP-92 NSCLC) [µM] | GI50 (786-0 renal) [µM] | GI50 (UO-31 renal) [µM] | GI50 (SF-539 CNS) [µM] | GI50 (U251 CNS) [µM] | GI50 (NCI-H23 lung) [µM] | GI50 (SNB-19 CNS) [µM] | GI50 (A498 renal) [µM] | GI50 (UACC-62 melanoma) [µM] | GI50 (RXF 393 renal) [µM]
O=C(NC1(C(=O)O)CC1c1ccccc1)c1ccccc1 (stereo not given) | > 100 | > 100 | > 100 | > 100 | > 100 | > 100 | > 100 | > 100 | > 100 | > 100 |  |  |  |  |  |  |  |  |  | 
CCC(=O)c1ccc2c(c1)N(CCCN1CCN(CCO)CC1)c1ccccc1S2 | 15.2 | 26.9 | 21.6 | 27 | 27.9 | 31.4 | 36.1 | 22.3 | 4.73 | 26.2 | 3.43 | 13.2 | 7.82 | 12.2 | 13.2 | 15.9 | 18.5 | 8.33 | 2.2 | 12.2
CCN1CCC(CC(=O)Nc2n[nH]c3nc(-c4cccs4)c(Br)cc23)CC1 | > 25 | > 25 | > 25 | > 22.2 | 19.4 | > 25 | > 25 | > 25 | 11 | 16.8 | > 24.1 | 10.7 | 9.05 | 9.22 | 6.78 | 20.1 | 17.4 | 7.87 | 5.26 | 5.51
COC(=O)[C@@H]1CCCN1C(=O)[C@H]1CCCN1C(=O)[C@@H](Cc1c[nH]c2ccccc12)NC(=S)Nc1cc(C(F)(F)F)cc(C(F)(F)F)c1 | 3.43 | 20.2 | 11.6 | 14.3 | 4.52 | 11.4 | 14.4 | 7.11 | 6.29 | 7.08 | 1.12 | 7.5 | 3.23 | 3.83 | 1.92 | 3.13 | 3.78 | 1.01 | 2.38 | 2.18
NC(=O)NCCSC1CCCCC1O (stereo not given) | > 100 | > 100 | > 100 | > 100 | > 100 | > 100 | > 100 | > 100 | > 100 | > 100 |  |  |  |  |  |  |  |  |  | 
Cc1cc(N=C2C=C(Nc3cc(C)on3)C(=O)c3ccccc32)no1 | 52.6 | 98.8 | > 100 | > 59.7 | > 95.1 | 26 | > 100 | > 100 | 38.4 | > 65.9 |  |  |  |  |  |  |  |  |  | 
NC1=NC(c2ccc(F)cc2)C2=C(N1)c1ccc3ccccc3c1OCC2 (stereo not given) | > 100 | > 100 | > 100 | 2.45 | > 100 | > 100 | > 100 | > 100 | 30.9 | > 100 | 36.3 | 79.7 | > 100 | 0.343 | 8.49 | 50.7 | 16.2 | 10.8 | 3.14 | 18.7
